We go through one molecule from US9149523B2, “Compositions and methods for treating cancer and neurodegenerative diseases” (Yeda Research and Development Co. Ltd., priority 2010, dated 2015).

The target in this test is T1, DAPk WT (Homo sapiens, UniProt P53355).
T1 construct: Plasmids encoding N-terminal Flag and hemaglutinin (HA)-tagged human full-length DAPk (Flag-DAPk and HA-DAPk); made in house; host or cells: HEK 293T cells, transient transfection; anti-FLAG M2 immunoprecipitation, elution with FLAG peptide
Description: In vitro kinase assay (ELISA, hMLC Ser 19 phosphorylation). Format: biochemical. The settings on record: DAPk WT pre-incubated with GDP versus Gpp(NH)p (non-hydrolysable GTP analog); FIG. 4C. The protocol:
Maxisorp™ multiwell polystyrene plates (Nunc, Langenselbold, Germany) were incubated at 4° C., overnight, with the indicated amounts of hMLC diluted in PBS. Plates were washed with PBST and blocked with 4% BSA (Sigma, City, State) diluted in PBS. The kinase reactions were then performed on the plate. Briefly, the wells were incubated with kinase buffer (50 mM Hepes, pH 7.5, 20 mM MgCl2, 0.1 mg/mL BSA, 50 mM β-glycerol phosphate, 50 μM ATP) containing 2.5 nM of the indicated enzyme, for 10 min. The reactions were stopped by addition of EDTA to final concentration of 25 mM. Plates were washed again with PBST and then incubated with rabbit anti MLC (Ser19) polyclonal antibody (Cell Signaling, Danvers, Mass.) at a 1:250 dilution in PBS. PBST wash was performed again and the plate incubated with HRP-conjugated goat anti rabbit IgG (Jackson ImmunoResearch, West Grove, Pa.). Detection was done with the HRP substrate ABTS. Where indicated the HRP read outs were plot using the Michaelis-Menten equation and the curves fit by the least squares method.
To determine the significance to DAPk's enzymatic activity of the ROC domain in general and of the GTP-binding in particular, in vitro kinase assays were performed. The assays were based on an ELISA format measuring phosphorylation of the DAPk substrate hMLC at Ser 19, using specific anti-phospho Ser19 antibodies. […]
On the technique in general: An ELISA detects its analyte on a solid surface through an enzyme-linked reagent.

Structures are written as SMILES.

T1 sequence (P53355 whole entry): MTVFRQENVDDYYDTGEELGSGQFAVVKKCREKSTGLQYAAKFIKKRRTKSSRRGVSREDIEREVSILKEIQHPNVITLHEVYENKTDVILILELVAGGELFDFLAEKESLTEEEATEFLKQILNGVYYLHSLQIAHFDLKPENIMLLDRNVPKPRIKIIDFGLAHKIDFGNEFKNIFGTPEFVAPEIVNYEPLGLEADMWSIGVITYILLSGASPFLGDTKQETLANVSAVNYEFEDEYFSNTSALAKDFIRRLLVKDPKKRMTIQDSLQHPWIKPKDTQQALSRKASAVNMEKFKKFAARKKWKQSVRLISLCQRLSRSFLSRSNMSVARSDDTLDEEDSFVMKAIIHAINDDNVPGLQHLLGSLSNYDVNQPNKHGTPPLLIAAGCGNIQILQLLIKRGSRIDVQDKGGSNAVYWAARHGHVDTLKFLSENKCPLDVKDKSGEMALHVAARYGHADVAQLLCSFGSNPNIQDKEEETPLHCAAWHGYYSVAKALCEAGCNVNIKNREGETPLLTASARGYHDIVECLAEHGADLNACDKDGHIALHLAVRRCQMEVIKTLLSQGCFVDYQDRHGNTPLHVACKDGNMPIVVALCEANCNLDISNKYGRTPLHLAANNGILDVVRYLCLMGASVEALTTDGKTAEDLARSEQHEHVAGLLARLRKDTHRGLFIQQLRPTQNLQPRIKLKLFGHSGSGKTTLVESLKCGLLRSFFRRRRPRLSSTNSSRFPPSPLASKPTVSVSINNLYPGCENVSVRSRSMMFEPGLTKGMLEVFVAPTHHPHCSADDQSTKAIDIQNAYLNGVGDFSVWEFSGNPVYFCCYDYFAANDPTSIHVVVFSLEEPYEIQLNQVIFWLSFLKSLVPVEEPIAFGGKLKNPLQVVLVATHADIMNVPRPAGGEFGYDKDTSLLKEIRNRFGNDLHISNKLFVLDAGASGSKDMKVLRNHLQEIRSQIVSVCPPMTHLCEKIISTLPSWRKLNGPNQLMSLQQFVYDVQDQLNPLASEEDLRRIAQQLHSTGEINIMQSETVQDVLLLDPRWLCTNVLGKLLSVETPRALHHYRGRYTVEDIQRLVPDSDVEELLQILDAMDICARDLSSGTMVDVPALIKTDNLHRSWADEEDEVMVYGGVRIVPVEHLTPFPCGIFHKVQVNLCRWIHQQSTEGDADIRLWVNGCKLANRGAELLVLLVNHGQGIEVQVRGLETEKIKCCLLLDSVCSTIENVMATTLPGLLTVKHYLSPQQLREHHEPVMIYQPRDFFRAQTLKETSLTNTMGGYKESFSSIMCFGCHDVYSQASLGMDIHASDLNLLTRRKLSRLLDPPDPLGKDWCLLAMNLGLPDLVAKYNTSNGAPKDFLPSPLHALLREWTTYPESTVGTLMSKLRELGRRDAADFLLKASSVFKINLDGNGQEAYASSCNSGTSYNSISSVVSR

For `Nc1nc2c(ncn2[C@@H]2O[C@H](COP(=O)(O)OP(=O)(O)O)[C@@H](O)[C@H]2O)c(=O)[nH]1` [GDP], the DAPk catalytic activity result is recorded as “increased catalytic activity”.
